From patent publication US20260355168A1, “COMPOSITIONS AND METHODS FOR TREATING AND DETECTING CANCER” (CASE WESTERN RESERVE UNIVERSITY, priority 2022, published 2026)
“Also recorded” adds a separate entry of the source.

Key:
[1] = tested on: LN229 cells; assay: LN229 scratch wound healing assay; assay type: cell-based, human
Text: FIGS. 3(A-D) illustrate a histogram and images of the LN229 scratch wound assays. A. Histogram showing the effects of all soluble wedge-targeted compounds on LN229 scratch wound closure. Cell movement into the scratches was quantified from scratch wound widths at the start and end of the assay and normalized to the average movement of cells in the unblinded DMSO control samples. Data is presented as average percentages±standard error of the means (s.e.m.), and compound bar codes are shown on the x-axis. The majority of compounds were screened with an n=2. Some priority compounds were screened with 3-6 replicates. Representative endpoint images of samples treated with DMSO (B) and two priority inhibitors (C and D) are shown. The relative migration distances for each example are indicated.
(§1) Cells were seeded at a density of 2.7×10^4 cells per well into the internal wells of Incuyte1 Imagelock 96-well plates (Essen BioScience Inc., Ann Arbor, MI) and cultured overnight to form monolayers. Monolayers were wounded with an IncuCyte1 96-well Woundmaker Tool per the manufacturer's instructions. The outer wells were filled with PBS to buffer edge effects, and then the wounded monolayers were cultured in 100 μl of fresh media with compounds or DMSO (2×replicates at 100 μM or 1%, respectively) at 37 °C and 5% CO2. Images were captured every 4 hrs. using an Incucyte live cell imaging system equipped with the Scratch Wound Module. Scratch wound widths were calculated, per the manufacturer's instructions, at TO and at endpoint (typically T12 for LN229 and U87 cells and T8 for Gli36), which was taken as the last timepoint before wound closure. The cell migration distance was calculated from scratch widths [(T0Width−TendpointWidth)/2] and normalized to the average distance migrated by the DMSO controls. Values are presented as average percentages±standard errors of the means (s.e.m.). The majority of compounds were screened with an n of two, but the n for priority hits ranges from 2-6.
Scratch assays measure the ability of cells to migrate into a wound and close it creating a monolayer.

[2] = tested on: U87 cells; assay: U87 scratch wound healing assay; assay type: cell-based, human; settings: 100 μM; in words
Text: FIGS. 11(A-D) illustrate a histogram and images of the results of the U87 scratch wound assays. A. Histogram showing the effects of all soluble wedge pocket-targeting compounds on U87 scratch wound closure. Cell movement into the scratches was quantified from scratch wound widths at the start and end of the assay and normalized to the average movement of cells in the unblinded DMSO control samples. Data is presented as average percentages±s.e.m., and compound bar codes are shown on the x-axis. Most compounds were screened with an n of 2-4. Representative images of scratch wounds treated with DMSO (A) or two priority inhibitors (C and D) are shown.
as §1

[3] = tested on: LN229 cells; assay: LN229 glioma sphere formation and growth assay; assay type: cell-based, human; settings: 100 μM, in words
Description: FIGS. 5(A-E) illustrate a histogram and images showing the results of the LN229 sphere formation and growth assays. Selected inhibitors, activators, and control compounds identified in LN229 and/or U87 scratch wound closure assays were retested at 100 μM in a secondary assay for glioma cell (LN229) sphere formation and growth. A. Histogram showing the effects of the indicated compounds on sphere formation. On day 1, sphere footprint areas were determined and normalized to the average footprint area of the unblinded vehicle-treated controls. On day 1, a larger footprint area indicates inhibition of aggregation. B. Histogram showing the effects of the indicated compounds on sphere growth. On day 7, the changes in sphere footprint areas were calculated and normalized to the average size change of the unblinded vehicle-treated controls. On day 7, a smaller value indicates reduced growth. […] Data is presented as percentages±s.e.m. of 2-4 replicates. Representative images of samples treated with DMSO (C) and two priority inhibitors (D and E) are shown. Relative day 1 footprint areas and day 7 growth measurements are indicated for each example.
FIGS. 15(A-D) illustrate a histogram and images of titration of selected compounds on LN229 sphere formation and growth. LN229 cells were plated onto non-adherent surfaces and treated with the indicated compounds at 100, 50, and 25 μM. A. On day 1, sphere footprint areas were determined and normalized to the average footprint area of the unblinded vehicle-treated controls. On day 1, a larger foot-print area indicates inhibition of aggregation. B. On day 7, the changes in sphere footprint areas were calculated and normalized to the average size change of the unblinded vehicle-treated controls. On day 7, a smaller value indicates reduced growth. […] Data is presented as percentages±s.e.m. The initial test at 100 μM and the follow-up at that dose with titration is shown. Each bar is the average of 2 replicates. Representative day 1 (C) and day 7 (D) images of samples treated with two priority inhibitors are shown. Relative day 1 sphere footprint areas and day 7 growth for each example are indicated.
(§2) Cells were seeded at a density of 7500 cells per well into the internal wells of 96-well plates coated with 0.75% (wt/vol) PVA as previously described. Compounds were added (2×replicates per treatment) at the indicated final concentrations, and control wells were treated with matching concentrations of DMSO. The external wells of the plates were filled with PBS to buffer against edge effects, and the cells were incubated at 37 °C and 5% CO2 for 7 days. A Leica CTR6500 microscope fitted with an automated stage was used to capture brightfield images on day 1 and day 7, and sphere footprint areas were measured using Image J (v1.52a http://imagej.nih.gov/ij) as previously described. To quantify the effects of the compounds on day 1, the footprint areas of the treated wells were normalized to the average area of the matched DMSO control wells. To quantify the effects of the compounds on sphere growth, the change in the sphere footprint areas was calculated ([…]) and then normalized to the average size change of the matched DMSO samples. All values are presented as average percentages±s.e.m.
We tested the effects of twenty-four compounds (11 flagged as inhibitory, 4 as stimulatory, and nine as inert in the initial scratch-wound screen, FIG. 2) on the ability of LN229 cells to mediate cell-cell adhesion and grow in 3D culture on non-adherent surfaces. To quantify sphere formation (FIG. 5A), the footprint areas of aggregates were measured on day 1 and normalized to that of the DMSO control. At this time point, a larger footprint size (>120%) indicates inhibition, i.e., the failure of cells to form a compact aggregate. To quantify sphere growth (FIG. 5B), we calculated the percent changes in sphere footprint areas between day 1 and day 7 and normalized them to that of the DMSO controls.

[4] = target: PTPμ (Homo sapiens, UniProt P28827); assay: PTPμ-dependent Sf9 aggregation assay; assay type: cell-based; settings: 100 μM; 20 min pretreatment; in words
[5] = tested on: glioma cells; assay: Glioma cell assays combined (scratch and sphere, several cell lines); assay type: cell-based, human; settings: 100 μM; multiple assays and cell lines
Description: FIG. 2 illustrates a schematic of a functional screening approach. Seventy-four PTPμ wedge-targeted compounds and 2 blinded DMSO samples were received from Atomwise and screened at 100 μM in scratch wound healing assays using two glioma cell lines (LN229 and U87). Selected active and control compounds were taken into secondary assays (Gli36 scratch and LN229 and Gli36 sphere formation and growth assays). Inhibitors selected as being active in primary and secondary screens were tested for effects on the survival of LN229 and Sf9 cells, and selected glioma-cell inhibitors and activators were screened for effects on Sf9-PTPμ aggregation, a highly specific test for PTPμ function.
as §1, §2

[6] = tested on: Gli36 cells; assay: Gli36 glioma sphere formation and growth assay; assay type: cell-based, human
Description: FIGS. 6(A-E) illustrate a histogram and images showing the results of the Gli36 sphere formation and growth assays. Selected inhibitors, activators, and control compounds identified in LN229 and/or U87 scratch wound closure assays were retested at 100 μM in a secondary assay for glioma cell (Gli36) sphere formation and growth. A. Histogram showing the effects of the indicated compounds on Day 1 sphere footprint areas. Footprint areas were measured and normalized to the average footprint area of the unblinded DMSO-treated controls. On day 1, a larger footprint area indicates inhibition of aggregation. B. Histogram showing the effects of the indicated compounds on sphere growth. Changes in sphere footprint areas were calculated and normalized to the average size change of the unblinded vehicle-treated controls. On day 7, a smaller value indicates reduced growth. […] Data is presented as percentages±s.e.m. of 2-4 replicates. Representative images of samples treated with DMSO (C) and two priority inhibitors (D and E) are shown. Relative day 1 footprint areas and day 7 growth measurements are indicated for each example.
as §2

PTPμ, sequence (P28827 21-1452): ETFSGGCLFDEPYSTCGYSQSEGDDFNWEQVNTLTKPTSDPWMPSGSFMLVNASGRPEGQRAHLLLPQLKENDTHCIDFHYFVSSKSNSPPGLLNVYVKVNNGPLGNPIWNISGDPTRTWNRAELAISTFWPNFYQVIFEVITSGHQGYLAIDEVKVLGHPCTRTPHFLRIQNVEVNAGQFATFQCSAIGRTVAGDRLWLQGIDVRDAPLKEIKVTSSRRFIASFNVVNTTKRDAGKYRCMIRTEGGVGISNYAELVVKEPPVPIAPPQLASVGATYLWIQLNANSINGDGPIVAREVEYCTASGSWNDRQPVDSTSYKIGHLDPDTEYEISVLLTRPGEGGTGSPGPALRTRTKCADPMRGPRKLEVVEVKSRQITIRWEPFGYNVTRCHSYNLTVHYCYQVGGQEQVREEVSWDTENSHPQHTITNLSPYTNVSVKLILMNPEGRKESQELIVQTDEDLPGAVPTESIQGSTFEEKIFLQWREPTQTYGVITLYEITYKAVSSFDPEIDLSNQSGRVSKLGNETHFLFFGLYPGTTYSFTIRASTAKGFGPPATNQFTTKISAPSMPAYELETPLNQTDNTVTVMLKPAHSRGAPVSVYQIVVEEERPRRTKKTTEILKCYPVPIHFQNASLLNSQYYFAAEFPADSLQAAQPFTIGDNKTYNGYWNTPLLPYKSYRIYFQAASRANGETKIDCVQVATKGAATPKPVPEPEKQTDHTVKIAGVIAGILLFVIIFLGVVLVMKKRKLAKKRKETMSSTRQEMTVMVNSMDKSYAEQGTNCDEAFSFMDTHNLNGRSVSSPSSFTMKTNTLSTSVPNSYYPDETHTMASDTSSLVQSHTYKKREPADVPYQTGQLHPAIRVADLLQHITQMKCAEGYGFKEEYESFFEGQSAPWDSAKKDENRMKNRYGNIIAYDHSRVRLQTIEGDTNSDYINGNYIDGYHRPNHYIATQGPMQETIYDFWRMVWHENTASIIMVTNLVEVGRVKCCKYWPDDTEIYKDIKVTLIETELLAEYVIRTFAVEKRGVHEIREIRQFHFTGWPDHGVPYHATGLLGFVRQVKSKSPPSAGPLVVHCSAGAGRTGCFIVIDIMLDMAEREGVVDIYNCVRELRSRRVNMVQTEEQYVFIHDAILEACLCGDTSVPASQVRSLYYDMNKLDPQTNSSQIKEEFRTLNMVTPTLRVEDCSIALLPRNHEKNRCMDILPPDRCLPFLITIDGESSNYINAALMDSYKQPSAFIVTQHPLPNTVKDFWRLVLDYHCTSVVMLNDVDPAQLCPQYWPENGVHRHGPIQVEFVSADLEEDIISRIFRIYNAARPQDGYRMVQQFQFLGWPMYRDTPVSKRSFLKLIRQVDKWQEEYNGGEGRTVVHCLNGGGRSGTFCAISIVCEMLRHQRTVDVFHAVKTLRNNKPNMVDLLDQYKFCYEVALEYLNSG

COc1ccc(CC(NC(=O)C2CC(NC(=O)CSC)CCN2C(=O)CCC(=O)O)C(N)=O)cc1 (stereo not shown) [Compound 247685114]
Effect on LN229 scratch wound closure / migration ([1]; 100 μM, in words): moderately stimulated LN229; also recorded: weakly stimulatory in U87 and LN229 scratch assays
activity at 100 µM ([1]; Homo sapiens, LN-229, normalized to DMSO controls, read-out: LN229 scratch wound closure relative to DMSO controls): ~120%
Effect on U87 cell migration (scratch wound closure) [2]: did not reach our strict cut-off for an activator; also recorded: weakly stimulatory in U87 and LN229 scratch assays
Effect on LN229 sphere formation ([3]; day 1): did not affect LN229 sphere formation or growth
Effect on LN229 sphere growth ([3]; day 7): did not affect LN229 sphere formation or growth
Effect on PTPμ-dependent Sf9 aggregation / adhesion [4]: activate Sf9-PTPμ aggregation; also recorded: activate PTPμ-dependent adhesion; also recorded: considerable increase in aggregate numbers; also recorded: activator of PTPμ-dependent adhesion; also recorded: able to activate PTPμ-mediated aggregation
Effect on glioma cells, overall [5]: only weak, if any, activity in other glioma-cell assays
Effect on Gli36 sphere formation ([6]; 100 μM, day 1, in words): affected Gli36 spheres; also recorded: accelerate Gli36 sphere condensation and growth; also recorded: weakly stimulatory in U87 and LN229 scratch assays and Gli36 sphere formation and growth assays; also recorded: stimulate Gli36 sphere formation and growth
Effect on Gli36 sphere growth ([6]; 100 μM, day 7, in words): grew marginally faster than controls; also recorded: modest activator of Gli36 sphere growth; also recorded: weakly stimulatory in U87 and LN229 scratch assays and Gli36 sphere formation and growth assays; also recorded: stimulate Gli36 sphere formation and growth
activity at 100 µM ([6]; Homo sapiens, GLI36, 24 h, day 1, of the control area, read-out: Average day 1 sphere footprint area, Gli36): 68%
